For 5 compounds, Activity results are on record in ChEMBL document CHEMBL1151405, “Biological and phytochemical investigation of Clausena excavata” (J Nat Prod, 1982).

Format in all cases: functional, organism-based
Assay [1] deals with Escherichia coli. In words: Antimicrobial activity against Escherichia coli 10536 at 500 ppm after 24 hrs.
The test system of assay [2] is Staphylococcus aureus. In words: Antimicrobial activity against Staphylococcus aureus 6538-P at 500 ppm after 24 hrs.
Assay [3] has as its system Staphylococcus aureus. In words: Antimicrobial activity against penicillin-resistant Staphylococcus aureus at 500 ppm after 24 hrs.
Assay [4] concerns Bordetella bronchiseptica. In words: Antimicrobial activity against Bordetella bronchiseptica 4614 at 500 ppm after 24 hrs.
Assay [5] relates to Aspergillus niger. In words: Antimicrobial activity against Aspergillus niger at 500 ppm after 24 hrs.
Assay [6] deals with Pseudomonas aeruginosa. In words: Antimicrobial activity against Pseudomonas aeruginosa NCTC 10490 at 500 ppm after 24 hrs.
Assay [7] concerns Salmonella enterica subsp. enterica serovar Gallinarum. In words: Antimicrobial activity against Salmonella gallinarum X142 at 500 ppm after 24 hrs.
Assay [8] concerns Micrococcus luteus. In words: Antimicrobial activity against Sarcina lutea 9341 at 500 ppm after 24 hrs.
In assay [9] the test system is Bacillus subtilis. In words: Antimicrobial activity against Bacillus subtilis 6633 at 500 ppm after 24 hrs.
Assay [10] relates to Saccharomyces pastorianus. In words: Antimicrobial activity against Saccharomyces carlsbergensis at 500 ppm after 24 hrs.
Assay [11] has as its system Streptococcus pneumoniae. In words: Antimicrobial activity against Pneumococcus clinical isolates at 500 ppm after 24 hrs.
The subject of assay [12] is Pseudomonas aeruginosa. In words: Antimicrobial activity against Pseudomonas aeruginosa NCTC 10490 at 50 ppm after 48 hrs.
For assay [13], the system named is Salmonella enterica subsp. enterica serovar Gallinarum. In words: Antimicrobial activity against Salmonella gallinarum X142 at 50 ppm after 24 hrs.
Assay [14] shares this test system. In words: Antimicrobial activity against Salmonella gallinarum X142 at 100 ppm after 24 hrs.
For assay [15], the system named is Bordetella bronchiseptica. In words: Antimicrobial activity against Bordetella bronchiseptica 4614 at 100 ppm after 48 hrs.
Assay [16] concerns Staphylococcus aureus. In words: Antimicrobial activity against Staphylococcus aureus 6538-P at 200 ppm after 48 hrs.
The test system of assay [17] is Escherichia coli. In words: Antimicrobial activity against Escherichia coli 10536 at 200 ppm after 24 hrs.
Assay [18] relates to Aspergillus niger. In words: Antimicrobial activity against Aspergillus niger at 10 ppm after 24 hrs.
Assay [19] concerns Staphylococcus aureus. In words: Antimicrobial activity against penicillin-resistant Staphylococcus aureus at 5 ppm after 24 hrs.
Assay [20] deals with Micrococcus luteus. In words: Antimicrobial activity against Sarcina lutea 9341 at 5 ppm after 24 hrs.
The subject of assay [21] is Saccharomyces pastorianus. In words: Antimicrobial activity against Saccharomyces carlsbergensis at 100 ppm after 24 hrs.
Assay [22] deals with Escherichia coli. In words: Antimicrobial activity against Escherichia coli 10536 at 5 ppm after 24 hrs.
The test system of assay [23] is Micrococcus luteus. In words: Antimicrobial activity against Sarcina lutea 9341 at 10 ppm after 24 hrs.
Assay [24] concerns Saccharomyces pastorianus. In words: Antimicrobial activity against Saccharomyces carlsbergensis at 10 ppm after 24 hrs.
In assay [25] the test system is Streptococcus pneumoniae. In words: Antimicrobial activity against Pneumococcus clinical isolates at 100 ppm after 48 hrs.
Assay [26] deals with Saccharomyces pastorianus. In words: Antimicrobial activity against Saccharomyces carlsbergensis at 50 ppm after 24 hrs.
Assay [27] deals with Streptococcus pneumoniae. In words: Antimicrobial activity against Pneumococcus clinical isolates at 200 ppm after 48 hrs.
The test system of assay [28] is Bacillus subtilis. In words: Antimicrobial activity against Bacillus subtilis 6633 at 50 ppm after 48 hrs.
For assay [29], the system named is Bacillus subtilis. In words: Antimicrobial activity against Bacillus subtilis 6633 at 200 ppm after 48 hrs.
Assay [30] relates to Streptococcus pneumoniae. In words: Antimicrobial activity against Pneumococcus clinical isolates at 50 ppm after 48 hrs.
In assay [31] the test system is Pseudomonas aeruginosa. In words: Antimicrobial activity against Pseudomonas aeruginosa NCTC 10490 at 100 ppm after 48 hrs.
Assay [32] has as its system Staphylococcus aureus. In words: Antimicrobial activity against penicillin-resistant Staphylococcus aureus at 50 ppm after 24 hrs.
Assay [33] deals with Bacillus subtilis. In words: Antimicrobial activity against Bacillus subtilis 6633 at 10 ppm after 48 hrs.
Assay [34] deals with Saccharomyces pastorianus. In words: Antimicrobial activity against Saccharomyces carlsbergensis at 200 ppm after 24 hrs.
The test system of assay [35] is Bacillus subtilis. In words: Antimicrobial activity against Bacillus subtilis 6633 at 5 ppm after 24 hrs.
For assay [36], the system named is Escherichia coli. In words: Antimicrobial activity against Escherichia coli 10536 at 10 ppm after 24 hrs.
The test system of assay [37] is Bordetella bronchiseptica. In words: Antimicrobial activity against Bordetella bronchiseptica 4614 at 5 ppm after 24 hrs.
Assay [38] deals with Salmonella enterica subsp. enterica serovar Gallinarum. In words: Antimicrobial activity against Salmonella gallinarum X142 at 10 ppm after 24 hrs.
The subject of assay [39] is Bordetella bronchiseptica. In words: Antimicrobial activity against Bordetella bronchiseptica 4614 at 200 ppm after 48 hrs.
The test system of assay [40] is Pseudomonas aeruginosa. In words: Antimicrobial activity against Pseudomonas aeruginosa NCTC 10490 at 200 ppm after 48 hrs.
The test system of assay [41] is Bordetella bronchiseptica. In words: Antimicrobial activity against Bordetella bronchiseptica 4614 at 10 ppm after 48 hrs.
For assay [42], the system named is Bordetella bronchiseptica. In words: Antimicrobial activity against Bordetella bronchiseptica 4614 at 50 ppm after 48 hrs.
For assay [43], the system named is Escherichia coli. In words: Antimicrobial activity against Escherichia coli 10536 at 100 ppm after 24 hrs.
Assay [44] deals with Staphylococcus aureus. In words: Antimicrobial activity against penicilln-resistant Staphylococcus aureus at 10 ppm after 24 hrs.
In assay [45] the test system is Micrococcus luteus. In words: Antimicrobial activity against Sarcina lutea 9341 at 200 ppm after 48 hrs.
Assay [46] has as its system Staphylococcus aureus. In words: Antimicrobial activity against penicilln-resistant Staphylococcus aureus at 100 ppm after 24 hrs.
Assay [47] has as its system Pseudomonas aeruginosa. In words: Antimicrobial activity against Pseudomonas aeruginosa NCTC 10490 at 10 ppm after 48 hrs.
Assay [48] concerns Aspergillus niger. In words: Antimicrobial activity against Aspergillus niger at 100 ppm after 24 hrs.
Assay [49] relates to Aspergillus niger. In words: Antimicrobial activity against Aspergillus niger at 200 ppm after 24 hrs.
The test system of assay [50] is Aspergillus niger. In words: Antimicrobial activity against Aspergillus niger at 50 ppm after 24 hrs.
Assay [51] relates to Streptococcus pneumoniae. In words: Antimicrobial activity against Pneumococcus clinical isolates at 10 ppm after 48 hrs.
For assay [52], the system named is Salmonella enterica subsp. enterica serovar Gallinarum. In words: Antimicrobial activity against Salmonella gallinarum X142 at 5 ppm after 24 hrs.
Assay [53] concerns Aspergillus niger. In words: Antimicrobial activity against Aspergillus niger at 5 ppm after 24 hrs.
For assay [54], the system named is Staphylococcus aureus. In words: Antimicrobial activity against Staphylococcus aureus 6538-P at 50 ppm after 48 hrs.
The test system of assay [55] is Staphylococcus aureus. In words: Antimicrobial activity against Staphylococcus aureus 6538-P at 10 ppm after 48 hrs.
Assay [56] relates to Salmonella enterica subsp. enterica serovar Gallinarum. In words: Antimicrobial activity against Salmonella gallinarum X142 at 200 ppm after 24 hrs.
Assay [57] relates to Saccharomyces pastorianus. In words: Antimicrobial activity against Saccharomyces carlsbergensis at 5 ppm after 24 hrs.
Assay [58] concerns Micrococcus luteus. In words: Antimicrobial activity against Sarcina lutea 9341 at 50 ppm after 24 hrs.
For assay [59], the system named is Staphylococcus aureus. In words: Antimicrobial activity against penicillin-resistant Staphylococcus aureus at 200 ppm after 24 hrs.
The test system of assay [60] is Staphylococcus aureus. In words: Antimicrobial activity against Staphylococcus aureus 6538-P at 100 ppm after 48 hrs.
Assay [61] has as its system Bacillus subtilis. In words: Antimicrobial activity against Bacillus subtilis 6633 at 100 ppm after 48 hrs.
In assay [62] the test system is Escherichia coli. In words: Antimicrobial activity against Escherichia coli 10536 at 50 ppm after 24 hrs.

Activity calls are given as the source filed them. No cut-off for these calls is given here.

Regarding `COc1c2c(cc3oc(=O)ccc13)OC(C)(C)C=C2`, the result (with Escherichia coli [1]; in the assay on Staphylococcus aureus [2]; in the assay with Staphylococcus aureus [3]; in [4]; in the assay on Aspergillus niger [5]; in the assay with Pseudomonas aeruginosa [6]) was inactive. For the same compound, the outcome (in assay [7]; in the assay on Micrococcus luteus [8]; with Bacillus subtilis [9]; in assay [10]; with Streptococcus pneumoniae [11]) was inactive.
In the case of `C=CC(C)(C)c1c2c(c(O)c3ccc(=O)oc13)C=CC(C)(C)O2`, the result (in the assay on Pseudomonas aeruginosa [12]; in assay [15]; in the assay on Staphylococcus aureus [16]; in the assay on Streptococcus pneumoniae [25]; with Streptococcus pneumoniae [27]; with Bacillus subtilis [28]) was Active. The outcome (in the assay on Bacillus subtilis [29]; in the assay on Streptococcus pneumoniae [30]; in the assay with Pseudomonas aeruginosa [31]; in the assay with Bacillus subtilis [33]; in assay [39]; in the assay with Pseudomonas aeruginosa [40]) was Active. For the same compound, the result (in [41]; in assay [42]; in the assay with Micrococcus luteus [45]; in the assay with Pseudomonas aeruginosa [47]; with Streptococcus pneumoniae [51]; in the assay with Staphylococcus aureus [54]) was Active. The outcome in the assay on Staphylococcus aureus [55], with Staphylococcus aureus [60] and in the assay on Bacillus subtilis [61] was Active. In addition, the result (in assay [13]; in assay [14]; with Escherichia coli [17]; in the assay on Aspergillus niger [18]; in the assay on Staphylococcus aureus [19]; in the assay on Micrococcus luteus [20]) was inactive. Further, the result (in assay [21]; in the assay on Escherichia coli [22]; in the assay with Micrococcus luteus [23]; in [24]; in [26]; in the assay with Staphylococcus aureus [32]) was inactive. The outcome (in [34]; in the assay on Bacillus subtilis [35]; in the assay with Escherichia coli [36]; in assay [37]; in assay [38]; with Escherichia coli [43]) was inactive. Moreover, the result (with Staphylococcus aureus [44]; with Staphylococcus aureus [46]; in the assay with Aspergillus niger [48]; in the assay on Aspergillus niger [49]; in assay [10]; in the assay on Aspergillus niger [50]) was inactive. For the same compound, the result (in assay [52]; in the assay on Aspergillus niger [53]; in assay [56]; in [57]; in the assay on Micrococcus luteus [58]; in the assay with Staphylococcus aureus [59]) was inactive. Also, the result in the assay on Escherichia coli [62] was inactive.
On to `C=CC(C)(C)c1cc2c(O)c3c(c(C(C)(C)C=C)c2oc1=O)OC(C)(C)C=C3`, for which the result (with Escherichia coli [1]; in the assay with Staphylococcus aureus [2]; in the assay with Staphylococcus aureus [3]; in assay [4]; in the assay on Aspergillus niger [5]; with Pseudomonas aeruginosa [6]) was inactive. For the same compound, the result (in [7]; in the assay with Micrococcus luteus [8]; in the assay on Bacillus subtilis [9]; in assay [10]; in the assay on Streptococcus pneumoniae [11]) was inactive.
As to `C=CC(C)(C)c1c(O)c(/C=C/C(=O)O)c2c(c1O)C(=O)CC(C)(C)O2`, the result (in the assay on Escherichia coli [1]; in the assay on Staphylococcus aureus [2]; in the assay on Staphylococcus aureus [3]; in assay [4]; in the assay with Aspergillus niger [5]; in the assay with Pseudomonas aeruginosa [6]) was inactive. Besides, the outcome (in assay [7]; in the assay with Micrococcus luteus [8]; with Bacillus subtilis [9]; in assay [10]; with Streptococcus pneumoniae [11]) was inactive.
Consider `C=CC(C)(C)c1c(O)c2c(c3ccc(=O)oc13)OC(C)(C)CC2=O`, for which the outcome (in the assay on Escherichia coli [1]; in the assay with Staphylococcus aureus [2]; in the assay with Staphylococcus aureus [3]; in [4]; with Aspergillus niger [5]; in the assay with Pseudomonas aeruginosa [6]) was inactive. For the same compound, the result (in [7]; in the assay with Micrococcus luteus [8]; with Bacillus subtilis [9]; in assay [10]; in the assay on Streptococcus pneumoniae [11]) was inactive.
